Where “and” joins values, the source holds several entries; their conditions need not be identical. Identical values can stand only once.
Assays:
[1] = Measurement of maximum absorption wavelength, maximum fluorescence wavelength and fluorescence quantum yield in solvents; format: physicochemical
Method: Using a luminescent quantum yield measurement apparatus ([…]-01, manufactured by Hamamatsu Photonics K.K.), the maximum absorption wavelength (λabs/nm), the maximum fluorescence wavelength (λflu/nm), and the fluorescence quantum yield (Φf) of the compound in each solvent were measured. The absorption spectrum was measured using an ultraviolet and visible spectrophotometer (Ubest-550, manufactured by JASCO Corporation), and the fluorescence emission spectrum was measured using a fluorescence spectrophotometer (F-7000, manufactured by Hitachi, Ltd.)

[2] = tested on: lipid droplets in a body tissue and adipose tissue; assay: Non-laparotomic imaging of lipid droplets in a fatty-liver model nude mouse; format: in vivo; settings: 50 nmol, tail vein
Method: Non-laparotomic imaging of lipid droplets in a body tissue, and of an adipose tissue, using PC6S is described below. A nude mouse was fed with a high-fat diet for 2 weeks to prepare a fatty-liver model mouse. PC6S (50 nmol) was administered from the tail vein of the nude mouse under anesthesia. Images were taken using a simple in vivo imaging device (Discovery (registered trademark); INDEC BioSystem) (for the nude mice lying on its back). An excitation wavelength of 450 to 490 nm and a monitoring wavelength of 520 nm or higher were employed. […] In order to confirm that the fluorescence was found from the liver, an image was taken after laparotomy. […] It was thus shown that the fluorescence imaging reagent of the present invention is useful even without laparotomy.

## CCN(CC)c1ccc2cc3cc(-c4nc5ccccc5s4)c(=O)oc3cc2c1 [PC6S, 3-(Benzo[d]thiazol-2-yl)-8-(diethylamino)-2H-benzo[g]chromen-2-one]
[1]; in Bu2O (dibutyl ether)
  Φf (fluorescence quantum yield): 0.88
  λmax abs (maximum absorption wavelength): 468 nm
  λmax flu (maximum fluorescence wavelength): 538 nm
[1]; in DMSO
  Φf (fluorescence quantum yield): 0.83
  λmax abs (maximum absorption wavelength): 504 nm
  λmax flu (maximum fluorescence wavelength): 642 nm
[1]; in EtOAc
  Φf (fluorescence quantum yield): 0.84
  λmax abs (maximum absorption wavelength): 483 nm
  λmax flu (maximum fluorescence wavelength): 585 nm
[1]; in MeCN
  Φf (fluorescence quantum yield): 0.80
  λmax abs (maximum absorption wavelength): 492 nm and 493 nm
  λmax flu (maximum fluorescence wavelength): 625 nm
[1]; in any of the solvents of Table 1
  fluorescence quantum yield: not less than 0.8
[1]; in n-Hexane
  Φf (fluorescence quantum yield): 0.89
  λmax abs (maximum absorption wavelength): 455 nm
  λmax flu (maximum fluorescence wavelength): 498 nm
[2]; after laparotomy
  laparotomic imaging: Fluorescence derived from PC6S was found in the liver
[2]; without laparotomy
  non-laparotomic imaging: Fluorescence derived from PC6S was found around the liver
